Experimental data published in a melting point compilation (Tetko et al.; mined from patent text by program, amines drawn as free bases though some values may be those of a salt).

| melting point [°C] | Structure (SMILES) |
| --- | --- |
| 173 to 175 | COc1ccc(C(=O)Nc2ccccc2)cc1NC(=O)C(O)c1ccccc1 (stereo unspecified) |
| 204 to 206 | COc1cc(C)nc(NC(=O)NS(=O)(=O)c2ccsc2S(C)(=O)=O)n1 |
| 108 to 110 | CCCCc1noc(-c2cccc(NC(=O)N(C)C)c2)n1 |
| 90 to 92 | O=[N+]([O-])c1ccccc1N1CCN(Cc2ccccc2)CCN1 |
| 99 to 100 | CCCCCCCCCCCCCCCCCCC1CNCCNCCNCCNCCN1 (stereo unspecified) |
| 108 to 110 | CN(C)C[C@H]1CC[C@H](CCNc2ncc(Br)cn2)CC1 |
| 196 to 197 | CNC(=O)NC1CC(C)(C)Cc2cc(C)cc(C)c21 (stereo unspecified) |
| 141 to 143 | CS(=O)(=O)N[C@@H]1CCCC[C@H]1Nc1nc(Nc2ccc3c(c2)CNCCS3)ncc1Cl |
| 124 to 126 | FC(F)(F)c1cccc(OC(c2ccc(Cl)cc2)c2nnn[nH]2)c1 (stereo unspecified) |
| 20 | CCOC(=O)c1c(C)nc(Cl)c([N+](=O)[O-])c1NCCCN(C)C |
| 139 to 142 | COc1cc(N)c(Cl)cc1C(=O)NCC1CCN(CCCCCNC(=O)c2cccc(Cl)c2)CC1 |
| 235 to 237 | CCC(=O)Nc1ccc(-c2ccnc3c(C(=O)c4ccco4)cnn23)cc1 |
| 228 to 231 | Cc1ccc(CC2CCN(C(=O)C(=O)Nc3ccc4c(c3)OCC(=O)N4)CC2)cc1 |
| 230 to 233 | NC(C=C(CP(=O)(O)O)c1ccccc1)C(=O)O (stereo unspecified) |
| 74.7 to 75.9 | O=C(O)COCCOc1c(-c2cccc(C(F)(F)F)c2)cc(C(=O)NCCCCCCc2ccccc2)cc1-c1cccc(C(F)(F)F)c1 |
| 162 | COc1cc2c(cc1OC)OC(C#N)C2 (stereo unspecified) |
| 172 to 174 | O=C(NCC1CCN(C[C@H]2COc3ccc(Cl)cc3O2)CC1)c1cccnc1 |
| 118 to 120 | O=C(CON1C(=O)c2ccccc2C1=O)NOCc1ccccc1 |
| 126 to 128 | O=C(NCC12CC3CC(CC(C3)C1)C2)c1cc(-c2ccc(F)cc2C(=O)O)ccc1Cl |
| 128 | C[C@@H](N[C@@H](CC(=O)N1CCn2c(nnc2C(F)(F)F)C1)Cc1cc(F)c(F)cc1F)c1ccccc1 |
| 172 to 174 | C[C@H]1C(=O)N[C@@H](Cc2c[nH]c3ccccc23)C(=O)N1OCc1ccccc1 |
| 110 to 112 | CSc1cc(C)nc(SC)c1NC(=O)CCN1CCN(CCSc2nc3ccccc3o2)CC1 |
| 148 to 149 | CNC(=S)C1=C(O)C(C)(C)Oc2ccc([N+](=O)[O-])cc21 |

| melting point [°C] | Structure (SMILES) |
| --- | --- |
| 132 | CCC1(C)C(=O)c2c(cc(OC)c(Cl)c2Cl)C1c1ccccc1 (stereo unspecified) |
| 133 to 134 | CC(=O)O[C@@](Cn1cncn1)(c1ccccc1F)[C@@H](C)n1ccnn1 |
| 271 to 272 | N#Cc1cc2[nH]cc(C(=O)O)c2cc1-c1ccc(C2(CO)CC2)cc1 |
| 236 | O=C(N[C@H]1CC[C@H](CCN2CCN(c3nccc4c3OCC4)CC2)CC1)c1ccc(-n2cccc2)cc1 |
| 297 to 299 | CCOc1ccc(/C=C/c2nc3c([nH]2)c(=O)n(CC)c(=O)n3CC)cc1 |
| 45 to 46 | CCCCCCCCCCCCCCCCOCC(COCCCCCCCCCCCCCCCC)NCCC#N |
| 159 to 161 | CCC(OC(=O)C1CC1)c1ccc(Cl)c2nc3n(c12)CCCN3c1ccc(Cl)cc1Cl (stereo unspecified) |
| 215 to 218 | Nc1ncc(C#Cc2ccc(Cl)cc2)c(N[C@H]2CC[C@H](O)CC2)n1 |
| 138 to 139 | CCN(CC)C(=O)n1cnc(Sc2c(C)cc(C)c(C)c2OC)n1 |
| 100 | N#Cc1ccc(OCc2ccccc2)cc1OCc1ccccc1 |
| 164 to 165 | COc1ccc(N2CCN(C[C@H]3COc4ccc5nc(C)ccc5c4O3)CC2)cc1 |
| 44 to 45.5 | CCOCCCCCCCCCCC(=O)O |
| 116 to 118 | CCCC(=O)n1nc(-c2ccncc2)nc1-c1ccncc1 |
| 285 to 288 | CS(=O)(=O)c1ccc(-c2nc(C(F)(F)F)nc(N=[N+]=[N-])c2-c2ccc(F)cc2)cc1 |
| 110 | CCOC(=O)C(C)Oc1ccc(Oc2cnc3cc(Cl)ccc3n2)cc1F (stereo unspecified) |
| 138 to 146 | COC(=O)Oc1cc(N2C(=O)C3=C(CCCC3)C2=O)c(F)cc1Cl |
| 108 to 109 | CCS(=O)(=O)Nc1ccc(Cc2ccc(N)cc2)cc1 |
| 68 to 71 | Cc1cc(C)cc(C(=O)N2CCN(C(=O)CBr)C(c3ccc(Cl)c(Cl)c3)C2)c1 (racemic) |
| 195 to 200 | O=C1NC(=S)SC1=Cc1ccc(Oc2ccccc2)cc1 |
| 63 to 67 | CCOC(=O)Cn1nnnc1C(=O)c1ccccc1 |
| 125 to 126 | COC1=C(OC)C(=O)c2cc(Sc3ccccc3Cl)ccc2C1=O |
| 140 to 142 | CN(O)C(=O)C(=Cc1ccc2ccccc2c1)c1ccc(Cl)cc1 |
| 117 to 119 | Cc1ccnc2c1nc(C)n2-c1ccccc1 |

| melting point [°C] | Structure (SMILES) |
| --- | --- |
| 126 | CC(=O)SCC(Cc1ccccc1)C(=O)NN1CCCCCC1 (stereo unspecified) |
| 114 | N#CCCC(CCC#N)(CCC#N)[N+](=O)[O-] |
| 95 to 100 | OC1CCc2c(Cl)cc(Cl)c(I)c21 (stereo unspecified) |
| 179 | OC1CSC(Oc2ccc(-c3ccnc(Cl)c3)nc2)C(O)C1O (stereo unspecified) |
| 128 | N#Cc1cc(N2CCN(CCCCCC(=O)N3Cc4ccccc4C3)CC2)cc(C(F)(F)F)c1 |
| 160 to 164 | CCCCc1oc2ccccc2c1C(=O)N(Cc1ccccc1)Cc1ccc2cc(O)ccc2c1 |
| 171 to 172 | COCCOc1cc2ncnc(NC3=CC(=O)C(Oc4ccc(C)cc4)=CC3=O)c2cc1OC |
| 36 to 38 | CCCCCCCCCCCCCCCCC(CO)OC (stereo unspecified) |
| 131 to 132 | N#CN1CCC2(CC1)CN(c1ccccc1F)c1ccccc12 |
| 191 to 193 | CC(C)(C)NC(=O)c1nn(-c2ccc(Br)cc2)c2c1C1CCC2CC1 |
| 142 to 143 | COc1ccc(N=C(NC(=S)NCc2cccnc2)c2ccccc2)cc1 |
| 123 to 124 | CCOC(=O)C1CCc2ccc(NC(=O)OC(C)(C)C)c(C)c2O1 (stereo unspecified) |
| 223 | Nc1nc2c(ncn2COCCCO)c(=O)[nH]1 |
| 80 to 83 | C=CCOc1c(C(C)=O)ccc(OCCCOc2ccc3cc(C(=O)OC)oc3c2C)c1CCC |
| 160 | Cc1ccc(S(=O)(=O)n2ccc3cc(F)cnc32)cc1 |
| 141 to 146 | CCCN(CCC)C1Cc2cc3c(cc2C1)C(=O)N(Cc1cccnc1)C3=O |
| 65 to 68 | CNCCc1ccc2[nH]c(C)c(C(=O)OCc3ccccc3)c2c1 |
| 170 to 171 | CC1(C)Cc2ccc(C#N)cc2N(C(=O)Nc2ccccc2)C1 |
| 191 to 192 | O=C(O)/C=C/c1cc(C2CC2)nn1Cc1ccc(C(F)(F)F)cc1Cl |
| 44 to 46 | COc1cc2c(cc1OCc1ccccc1)CCCN(Cc1cc(OC)c(OC)c(OC)c1)C2 |
| 162 to 163 | CCOc1ccc(C2=NN(C(=O)c3cccc(N)c3)CCC2)cc1OCC |
| 168 to 201 | OC1CSC(Oc2cccc(-c3ccc(F)cn3)c2)C(O)C1O (stereo unspecified) |
| 220 to 221 | CCOc1cc2cc(CO)cc(-c3ccnc(-n4nc(C)c5ccccc5c4=O)c3)c2cc1OCC |

| Structure (SMILES) | melting point [°C] |
| --- | --- |
| N#Cc1ccc(N2C(=O)NC3(CCCCC3)C2=O)cc1C(F)(F)F | 187 |
| COC1=CC(=O)C(=O)C=C1NCCCl | 150 to 152 |
